Tests used:
Human Axl = molecular target: T1, Human Axl (Homo sapiens, UniProt P30530); experiment: Human AXL kinase assay (33P radiometric / HTRF KinEase); assay type: biochemical; conditions: protocols of Examples A-1 and/or A-2
T1 construct: Human AXL (residues 464-885)
T1 sequence (P30530 1-894 Q764R): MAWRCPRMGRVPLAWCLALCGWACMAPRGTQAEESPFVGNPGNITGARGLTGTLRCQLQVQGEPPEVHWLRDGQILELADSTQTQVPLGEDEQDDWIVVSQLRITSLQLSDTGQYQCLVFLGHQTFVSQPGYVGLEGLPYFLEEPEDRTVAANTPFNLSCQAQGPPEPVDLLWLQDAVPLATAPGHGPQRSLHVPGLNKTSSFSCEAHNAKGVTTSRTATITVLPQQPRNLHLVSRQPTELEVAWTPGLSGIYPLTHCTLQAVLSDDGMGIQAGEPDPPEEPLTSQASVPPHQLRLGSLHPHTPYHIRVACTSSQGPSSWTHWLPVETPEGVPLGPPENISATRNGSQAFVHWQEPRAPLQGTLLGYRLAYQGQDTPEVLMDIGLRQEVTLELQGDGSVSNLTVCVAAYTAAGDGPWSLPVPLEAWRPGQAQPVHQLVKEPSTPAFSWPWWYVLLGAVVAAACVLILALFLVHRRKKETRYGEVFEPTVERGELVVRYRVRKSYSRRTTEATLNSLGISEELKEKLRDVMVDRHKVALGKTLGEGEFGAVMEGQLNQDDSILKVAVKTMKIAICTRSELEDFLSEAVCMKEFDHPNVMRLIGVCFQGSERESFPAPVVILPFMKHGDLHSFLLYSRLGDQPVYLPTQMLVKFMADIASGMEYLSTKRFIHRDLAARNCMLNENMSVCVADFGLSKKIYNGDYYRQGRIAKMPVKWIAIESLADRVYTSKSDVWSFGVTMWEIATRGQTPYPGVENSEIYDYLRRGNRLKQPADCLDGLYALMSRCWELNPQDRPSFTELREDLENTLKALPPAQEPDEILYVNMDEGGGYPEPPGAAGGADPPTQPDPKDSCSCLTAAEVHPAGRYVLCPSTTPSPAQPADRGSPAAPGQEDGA

Human Met = molecular target: T2, Human Met (Homo sapiens, UniProt P08581); experiment: Human Met kinase assay (33P radiometric / HTRF KinEase); assay type: biochemical; conditions: protocols of Examples D-1 and/or D-2; read-out: c-Met IC50
T2 construct: Human MET (residues 956-1390)
T2 sequence (P08581 974-1390 limits assumed): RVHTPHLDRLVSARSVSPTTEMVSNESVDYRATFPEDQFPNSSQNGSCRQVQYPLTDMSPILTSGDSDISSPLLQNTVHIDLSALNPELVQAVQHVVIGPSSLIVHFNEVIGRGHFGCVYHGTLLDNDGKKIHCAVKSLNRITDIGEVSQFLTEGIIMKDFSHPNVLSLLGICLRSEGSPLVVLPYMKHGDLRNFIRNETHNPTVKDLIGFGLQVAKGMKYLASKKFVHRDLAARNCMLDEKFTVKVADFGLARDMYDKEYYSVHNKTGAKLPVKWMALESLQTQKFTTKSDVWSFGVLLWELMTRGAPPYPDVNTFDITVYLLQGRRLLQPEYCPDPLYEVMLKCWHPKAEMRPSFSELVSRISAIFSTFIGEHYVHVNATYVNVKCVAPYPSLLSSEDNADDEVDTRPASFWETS
Outline: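 Two formats gave IC50s by curve fitting. HTRF KinEase used MET residues 956-1390 with 1 μM biotin-peptide and 3.0 μM ATP (Km) for 40 min at room temperature, ten doses in 3% DMSO, 665/620 nm read. The 33P transfer assay used mutant Met R974-S1390 A1209G/V1290L (3.4 nM), 10 μM ATP, 250 μM peptide, pH 7.0, 40 min, nine doses from 1 μM.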

Row | SMILES | IC50 (Human Axl) [nM] | IC50 (Human Met) [nM]
1 | COc1cc2nccc(Oc3ccc(NC(=O)c4cnc(C)c(C5=CCOCC5)c4O)cc3F)c2cc1OC [Compound 19, 5-(3,6-Dihydro-2H-pyran-4-yl)-N-[4-(6,7-dimethoxyquinolin-4-yl)oxy-3-fluorophenyl]-4-hydroxy-6-methylpyridine-3-carboxamide] | ≤ 100 | ≤ 100
2 | COc1cc2nccc(Oc3ccc(NC(=O)c4c5n(c(C)c(C6=CCCCC6)c4=O)CCOC5)cc3)c2nc1OC [Compound 100, 7-(Cyclohexen-1-yl)-N-[4-[(6,7-dimethoxy-1,5-naphthyridin-4-yl)oxy]phenyl]-6-methyl-8-oxo-3,4-dihydro-1H-pyrido[2,1-c][1,4]oxazine-9-carboxamide] | ≤ 100 | ≤ 100
3 | COc1cc2nccc(Oc3ccc(NC(=O)c4c5n(c(C)c(C6=CCCCC6)c4=O)CCOC5)cc3F)c2nc1OC [Compound 80, 7-(Cyclohexen-1-yl)-N-[4-[(6,7-dimethoxy-1,5-naphthyridin-4-yl)oxy]-3-fluorophenyl]-6-methyl-8-oxo-3,4-dihydro-1H-pyrido[2,1-c][1,4]oxazine-9-carboxamide] | ≤ 100 | ≤ 100
4 | COc1cnc2c(Oc3ccc(NC(=O)c4cnc(C)c(C5=CCOCC5)c4O)cc3)ccnc2c1 [Compound 7, 5-(3,6-Dihydro-2H-pyran-4-yl)-4-hydroxy-N-[4-[(7-methoxy-1,5-naphthyridin-4-yl)oxy]phenyl]-6-methylpyridine-3-carboxamide] | ≤ 100 | ≤ 100
5 | COc1cc2nccc(Oc3ccc(NC(=O)c4c5n(c(C)c(C6=CCCC6)c4=O)CCOC5)cc3)c2nc1OC [Compound 99, 7-(Cyclopenten-1-yl)-N-[4-[(6,7-dimethoxy-1,5-naphthyridin-4-yl)oxy]phenyl]-6-methyl-8-oxo-3,4-dihydro-1H-pyrido[2,1-c][1,4]oxazine-9-carboxamide] | ≤ 100 | ≤ 100
6 | COc1cc2nccc(Oc3ccc(NC(=O)c4c(C)ccn(C(C)C)c4=O)cc3)c2nc1OC [Compound 39, N-[4-[(6,7-Dimethoxy-1,5-naphthyridin-4-yl)oxy]phenyl]-4-methyl-2-oxo-1-propan-2-ylpyridine-3-carboxamide] | > 300 | > 300
7 | COc1cc2nccc(Oc3ccc(NC(=O)c4c(C)n(C)c(C)c(C5CC5)c4=O)cc3)c2nc1OC [Compound 48, 5-Cyclopropyl-N-[4-[(6,7-dimethoxy-1,5-naphthyridin-4-yl)oxy]phenyl]-1,2,6-trimethyl-4-oxopyridine-3-carboxamide] | ≤ 100 | > 300
8 | COc1cc2nccc(Oc3ccc(NC(=O)c4cn(CCF)c(C)c(C5CCCC5)c4=O)cc3F)c2nc1OC [Compound 13, 5-Cyclopentyl-N-[4-[(6,7-dimethoxy-1,5-naphthyridin-4-yl)oxy]-3-fluorophenyl]-1-(2-fluoroethyl)-6-methyl-4-oxopyridine-3-carboxamide] | ≤ 100 | ≤ 100
9 | COc1cc2nccc(Oc3ccc(NC(=O)c4cnc(C)c(C5=CCCC5)c4O)cc3)c2cc1OC [Compound 16, 5-(Cyclopenten-1-yl)-N-[4-(6,7-dimethoxyquinolin-4-yl)oxyphenyl]-4-hydroxy-6-methylpyridine-3-carboxamide] | ≤ 100 | ≤ 100
10 | COc1cc2nccc(Oc3ccc(NC(=O)c4cnc(C)c(C5=CCCCC5)c4O)cc3)c2cc1OC [Compound 24, 5-(Cyclohexen-1-yl)-N-[4-(6,7-dimethoxyquinolin-4-yl)oxyphenyl]-4-hydroxy-6-methylpyridine-3-carboxamide] | ≤ 100 | ≤ 100
11 | COc1cnc2c(Oc3ccc(NC(=O)c4c(C)n(C)c(C)c(C#N)c4=O)cc3F)ccnc2c1 [Compound 81, 5-Cyano-N-[3-fluoro-4-[(7-methoxy-1,5-naphthyridin-4-yl)oxy]phenyl]-1,2,6-trimethyl-4-oxopyridine-3-carboxamide] | > 300 | > 300

The next lines start with the values.

Row | IC50 (Human Axl) [nM] | IC50 (Human Met) [nM] | SMILES
12 | 100 to 300 | > 300 | COc1cc2nccc(Oc3ccc(NC(=O)c4c(C)n(C)c(C)c(C(=O)N(C)C)c4=O)cc3F)c2nc1OC [Compound 95, 5-N-[4-[(6,7-Dimethoxy-1,5-naphthyridin-4-yl)oxy]-3-fluorophenyl]-3-N,3-N,1,2,6-pentamethyl-4-oxopyridine-3,5-dicarboxamide]
13 | > 300 | > 300 | COc1cnc2c(Oc3ccc(NC(=O)c4c(C)nc(C)c(C(N)=O)c4O)cc3F)ccnc2c1 [Compound 91, 3-N-[3-Fluoro-4-[(7-methoxy-1,5-naphthyridin-4-yl)oxy]phenyl]-4-hydroxy-2,6-dimethylpyridine-3,5-dicarboxamide]
14 | ≤ 100 | ≤ 100 | COc1cc2nccc(Oc3ccc(NC(=O)c4c5n(c(C)c(C6=CCOCC6)c4=O)CCOC5)cc3F)c2nc1OC [Compound 79, 7-(3,6-Dihydro-2H-pyran-4-yl)-N-[4-[(6,7-dimethoxy-1,5-naphthyridin-4-yl)oxy]-3-fluorophenyl]-6-methyl-8-oxo-3,4-dihydro-1H-pyrido[2,1-c][1,4]oxazine-9-carboxamide]
15 | ≤ 100 | ≤ 100 | COCCOc1cc2nccc(Oc3ccc(NC(=O)c4cnc(C)c(/C=C/C(C)(C)C)c4O)cc3F)c2nc1OC [Compound 40, 5-[(E)-3,3-Dimethylbut-1-enyl]-N-[3-fluoro-4-[[6-methoxy-7-(2-methoxyethoxy)-1,5-naphthyridin-4-yl]oxy]phenyl]-4-hydroxy-6-methylpyridine-3-carboxamide]
16 | ≤ 100 | ≤ 100 | COc1cc2nccc(Oc3ccc(NC(=O)c4cn(C)c(C)c(C5CCCC5)c4=O)cc3F)c2nc1OC [Compound 2, 5-Cyclopentyl-N-[4-[(6,7-dimethoxy-1,5-naphthyridin-4-yl)oxy]-3-fluorophenyl]-1,6-dimethyl-4-oxopyridine-3-carboxamide]
17 | ≤ 100 | ≤ 100 | COc1cc2nccc(Oc3cc(F)c(NC(=O)c4c(C)nc(C)c(C(C)C)c4O)cc3F)c2nc1OC [Compound 10, N-[4-[(6,7-Dimethoxy-1,5-naphthyridin-4-yl)oxy]-2,5-difluorophenyl]-4-hydroxy-2,6-dimethyl-5-propan-2-ylpyridine-3-carboxamide]
18 | > 300 | > 300 | COc1cc2nccc(Oc3ccc(NC(=O)c4c(C)nc(C)c(C(N)=O)c4O)cc3F)c2nc1OC [Compound 84, 3-N-[4-[(6,7-Dimethoxy-1,5-naphthyridin-4-yl)oxy]-3-fluorophenyl]-4-hydroxy-2,6-dimethylpyridine-3,5-dicarboxamide]
19 | ≤ 100 | ≤ 100 | C=C(C)c1c(C)nc(C)c(C(=O)Nc2cc(F)c(Oc3ccnc4cc(OC)c(OC)nc34)cc2F)c1O [Compound 6, N-[4-[(6,7-Dimethoxy-1,5-naphthyridin-4-yl)oxy]-2,5-difluorophenyl]-4-hydroxy-2,6-dimethyl-5-prop-1-en-2-ylpyridine-3-carboxamide]
20 | ≤ 100 | ≤ 100 | COCCOc1cc2nccc(Oc3ccc(NC(=O)c4cnc(C)c(C5=CCCC5)c4O)cc3F)c2nc1OC [Compound 33, 5-(Cyclopenten-1-yl)-N-[3-fluoro-4-[[6-methoxy-7-(2-methoxyethoxy)-1,5-naphthyridin-4-yl]oxy]phenyl]-4-hydroxy-6-methylpyridine-3-carboxamide]

Source: patent US20240158393A1, “PYRIDONE COMPOUNDS AND METHODS OF USE” (Exelixis, Inc., priority 2021, published 2024)
